In PubChem BioAssay AID330 (DTP/NCI, 2004):
Several values for one entry are separate records, joined by “and”; a condition that tells them apart may be missing. Equal entries are not always repeated. Toxic doses and inconclusive results are not listed. Rule for the calls: active = survival T/C of 150% or more; inactive = T/C below 125% in these data.

Test system: P388 leukemia ip, CD2F1 mice, survival T/C
Assay: NCI In Vivo Anticancer Drug Screen. Data for tumor model P388 Leukemia (intraperitoneal) in CD2F1 (CDF1) mice
Conditions: endpoint: median survival time, higher = longer survival
Summary of the method: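 Mice carrying the transplanted tumor received test compound or vehicle. Survival was recorded in each group, and the value is the treated-group measurement divided by that of the vehicle-treated control group.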

[1] = dose: 50.0 mg/kg/injection, schedule: Q01DX009 (ip), vehicle: saline with Tween-80
[2] = dose: 100.0 mg/kg/injection, schedule: Q01DX009 (ip), vehicle: saline with Tween-80
[3] = dose: 200.0 mg/kg/injection, schedule: Q01DX009 (ip), vehicle: saline with Tween-80
[4] = dose: 50.0 mg/kg/injection, schedule: Q01DX009 (ip), vehicle: saline
[5] = dose: 100.0 mg/kg/injection, schedule: Q01DX009 (ip), vehicle: saline
[6] = dose: 200.0 mg/kg/injection, schedule: Q01DX009 (ip), vehicle: saline
[7] = dose: 60.0 mg/kg/injection, schedule: Q01DX005 (ip), vehicle: Klucel (hydroxypropylcellulose) (HPC)
[8] = dose: 240.0 mg/kg/injection, schedule: Q01DX005 (ip), vehicle: Klucel (hydroxypropylcellulose) (HPC)
[9] = dose: 50.0 mg/kg/injection, schedule: Q01DX005 (ip), vehicle: saline with Tween-80
[10] = dose: 100.0 mg/kg/injection, schedule: Q01DX005 (ip), vehicle: saline with Tween-80
[11] = dose: 200.0 mg/kg/injection, schedule: Q01DX005 (ip), vehicle: saline with Tween-80
[12] = dose: 60.0 mg/kg/injection, schedule: Q01DX005 (ip), vehicle: saline with Tween-80
[13] = dose: 120.0 mg/kg/injection, schedule: Q01DX005 (ip), vehicle: saline with Tween-80
[14] = dose: 240.0 mg/kg/injection, schedule: Q01DX005 (ip), vehicle: saline with Tween-80
[15] = dose: 100.0 mg/kg/injection, schedule: Q04DX002 (ip), vehicle: saline with Tween-80
[16] = dose: 200.0 mg/kg/injection, schedule: Q04DX002 (ip), vehicle: saline with Tween-80

Measured: T/C

CC(C)(C)C(=O)CS(=O)(=O)CC(=O)C(C)(C)C
inactive: dose: 25.0 mg/kg/injection, schedule: Q01DX009 (ip), vehicle: saline with Tween-80 112 % of control | [1] 108 % of control | [2] 103 % of control

OCC1C2CCCC12 (stereo not given)
inactive: [1] 95 % of control | [2] 114 % of control | [3] 104 % of control

O=C(NC(=S)c1ccccc1)Nc1ccc(Cl)c(Cl)c1
inactive: dose: 8.0 mg/kg/injection, schedule: Q01DX009 (ip), vehicle: saline with Tween-80 100 % of control | dose: 16.0 mg/kg/injection, schedule: Q01DX009 (ip), vehicle: saline with Tween-80 99 % of control | dose: 32.0 mg/kg/injection, schedule: Q01DX009 (ip), vehicle: saline with Tween-80 87 % of control

Cc1ccc(NC(=O)c2cc3ccccc3cc2O)c(C)c1.Cc1ccc(NC(=O)c2cc3ccccc3cc2O)c(C)c1.[Mn+2]
inactive: [4] 87 % of control | [5] 86 % of control | [6] 86 % of control

O=S(=O)(CS(=O)(=O)c1ccc(Br)cc1)c1ccc(Br)cc1
inactive: [7] 102 % of control | dose: 120.0 mg/kg/injection, schedule: Q01DX005 (ip), vehicle: Klucel (hydroxypropylcellulose) (HPC) 107 % of control | [8] 102 % of control

CSCNC(=O)Nc1ccccc1
inactive: [9] 98 % of control | [10] 100 % of control | [11] 104 % of control

O=C(Nc1ccccc1)/C(Cl)=C1/Sc2ccccc2NC1=O
inactive: [12] 104 % of control | [13] 107 % of control | [14] 99 % of control

O=C1CCC(=O)N1CC(O)COc1ccccc1 (stereo not given)
inactive: [2] 95 % of control | [3] 95 % of control | dose: 400.0 mg/kg/injection, schedule: Q01DX009 (ip), vehicle: saline with Tween-80 100 % of control

Cc1cc(=O)c2c(C)nn(-c3ccccc3)c2[nH]1
inactive: dose: 15.0 mg/kg/injection, schedule: Q01DX005 (ip), vehicle: Klucel (hydroxypropylcellulose) (HPC) 98 % of control | dose: 30.0 mg/kg/injection, schedule: Q01DX005 (ip), vehicle: Klucel (hydroxypropylcellulose) (HPC) 100 % of control | [7] 94 % of control | [8] 93 % of control

Nc1nnc(SCCCCCCCCCCCCSc2nnc(N)s2)s1
inactive: dose: 12.5 mg/kg/injection, schedule: Q01DX005 (ip), vehicle: Klucel (hydroxypropylcellulose) (HPC) 91 % of control | dose: 25.0 mg/kg/injection, schedule: Q01DX005 (ip), vehicle: Klucel (hydroxypropylcellulose) (HPC) 90 % of control | dose: 50.0 mg/kg/injection, schedule: Q01DX005 (ip), vehicle: Klucel (hydroxypropylcellulose) (HPC) 89 % of control | dose: 200.0 mg/kg/injection, schedule: Q01DX005 (ip), vehicle: Klucel (hydroxypropylcellulose) (HPC) 86 % of control

COc1ccc(C(C)c2cc3c(cc2OC(C)O)OCO3)cc1 (stereo not given)
inactive: [12] 92 % of control | [13] 94 % of control | [14] 97 % of control

COc1cc2c(c(OC(C)=O)c1OC(C)=O)-c1ccc(SC)c(=O)cc1C(NC(C)=O)CC2 (stereo not given)
inactive: dose: 1.25 mg/kg/injection, schedule: Q01DX009 (ip), vehicle: Klucel (hydroxypropylcellulose) (HPC) 110 % of control | dose: 2.5 mg/kg/injection, schedule: Q01DX009 (ip), vehicle: Klucel (hydroxypropylcellulose) (HPC) 105 % of control | dose: 5.0 mg/kg/injection, schedule: Q01DX009 (ip), vehicle: Klucel (hydroxypropylcellulose) (HPC) 93 % of control | dose: 9.0 mg/kg/injection, schedule: Q01DX009 (ip), vehicle: Klucel (hydroxypropylcellulose) (HPC) 100 % of control | dose: 10.0 mg/kg/injection, schedule: Q01DX009 (ip), vehicle: Klucel (hydroxypropylcellulose) (HPC) 105 % of control | dose: 18.0 mg/kg/injection, schedule: Q01DX009 (ip), vehicle: Klucel (hydroxypropylcellulose) (HPC) 89 % of control | dose: 36.0 mg/kg/injection, schedule: Q01DX009 (ip), vehicle: Klucel (hydroxypropylcellulose) (HPC) 100 % of control

CC1(OC(=O)c2ccc([N+](=O)[O-])cc2)CC(C)(C)[N+]([O-])=N1 (stereo not given)
inactive: dose: 12.5 mg/kg/injection, schedule: Q01DX009 (ip), vehicle: other 102 % of control | dose: 25.0 mg/kg/injection, schedule: Q01DX009 (ip), vehicle: other 102 % of control | dose: 50.0 mg/kg/injection, schedule: Q01DX009 (ip), vehicle: other 109 % of control | dose: 100.0 mg/kg/injection, schedule: Q01DX009 (ip), vehicle: other 100 % of control | dose: 200.0 mg/kg/injection, schedule: Q01DX009 (ip), vehicle: other 94 % of control

COC(=O)C1c2c(C)cc3n2C(C=CC3)C1C(=O)OC (stereo not given)
inactive: dose: 100.0 mg/kg/injection, schedule: Q04DX003 (ip), vehicle: Klucel (hydroxypropylcellulose) (HPC) 94 % of control | dose: 200.0 mg/kg/injection, schedule: Q04DX003 (ip), vehicle: Klucel (hydroxypropylcellulose) (HPC) 93 % of control | dose: 400.0 mg/kg/injection, schedule: Q04DX003 (ip), vehicle: Klucel (hydroxypropylcellulose) (HPC) 101 % of control

CN1c2ccccc2C2=C(C3=C(CS2)C(=O)CCS3)S1(=O)=O
inactive: dose: 100.0 mg/kg/injection, schedule: Q01DX001 (ip), vehicle: saline with Tween-80 100 % of control | dose: 200.0 mg/kg/injection, schedule: Q01DX001 (ip), vehicle: saline with Tween-80 99 % of control | dose: 400.0 mg/kg/injection, schedule: Q01DX001 (ip), vehicle: saline with Tween-80 100 % of control

NC(N)=O.NC(N)=O.NC(N)=O.NC(N)=O.NC(N)=O.NC(N)=O.[O-][Cl+3]([O-])([O-])O.[V]
inactive: dose: 25.0 mg/kg/injection, schedule: Q04DX003 (ip), vehicle: saline with Tween-80 94 % of control | dose: 50.0 mg/kg/injection, schedule: Q04DX003 (ip), vehicle: saline with Tween-80 97 % of control | dose: 100.0 mg/kg/injection, schedule: Q04DX003 (ip), vehicle: saline with Tween-80 109 % of control

COc1ccc(S(=O)(=O)O)cc1-n1nc(C(=O)Nc2ccccc2)n[n+]1-c1cc(S(=O)(=O)[O-])ccc1OC
inactive: dose: 100.0 mg/kg/injection, schedule: Q01DX001 (ip), vehicle: suspension in saline 100 % of control | dose: 200.0 mg/kg/injection, schedule: Q01DX001 (ip), vehicle: suspension in saline 100 % of control | dose: 400.0 mg/kg/injection, schedule: Q01DX001 (ip), vehicle: suspension in saline 103 % of control

Cc1ccc(S(=O)(=O)S(=O)(=O)c2ccc(C)cc2)cc1
inactive: [15] 96 % of control | [16] 99 % of control | dose: 400.0 mg/kg/injection, schedule: Q04DX002 (ip), vehicle: saline with Tween-80 104 % of control

CC1(C)OC2(CC1C1(C)C=CC(=O)O1)CC1C(O)(CCC34CC13C(=O)OC4c1ccoc1)O2 (stereo not given)
inactive: [4] 100 % of control | [5] 95 % of control | [6] 104 % of control

CC([NH-])C(=O)O.O=C(O)CN(CC(=O)O)CC(=O)O.[Co+2]
inactive: dose: 25.0 mg/kg/injection, schedule: Q01DX009 (ip), vehicle: saline 104 % of control | [4] 113 % of control | [5] 104 % of control and 90 % of control

Oc1ccc2[nH]c3cc4ccncc4cc3c2c1
inactive: dose: 25.0 mg/kg/injection, schedule: Q04DX002 (ip), vehicle: saline with Tween-80 106 % of control | dose: 50.0 mg/kg/injection, schedule: Q04DX002 (ip), vehicle: saline with Tween-80 97 % of control | [15] 122 % of control | [16] 115 % of control

CC(C)C1OCC(CCl)O1 (stereo not given)
inactive: [9] 104 % of control | [10] 100 % of control | [11] 104 % of control
